# Data from patent US11969402B2, “Compositions and methods for skin rejuvenation” (THE JOHNS HOPKINS UNIVERSITY, priority 2019, dated 2024).
# How the values were obtained:
# [1] = tested on: human scalp keratinocytes; assay: Retinoid levels (RA by LC-MS/MS, ROL and RE by HPLC-UV) in keratinocytes; type: cell-based; conditions: human scalp keratinocytes, rhIL6 0, 10, 50, 100 ng per ml, 2 days
# From the text: Small interference RNA (siRNA) transfection. Human ALDH1A2 (Santa Cruz Biotechnology, sc41443), ALDH1A3 (Santa Cruz Biotechnology, sc43611), TLR3 (Dharmacon, M-007745-00), TRIF (Santa Cruz Biotechnology, sc106845), IRF3 (Santa Cruz Biotechnology, sc35710), NF-κB (Santa Cruz Biotechnology, sc29410) and non-targeting control (scramble) siRNAs (Santa Cruz Biotechnology, sc37007 & Dharmacon, D-001210) were commercially provided. Human scalp keratinocytes (3×10^5 cells per well) in 12-well plates were transfected with 20 nM of siRNAs using Lipofectamine® RNAiMAX (Thermo Fisher Scientific, #13778150) following the manufacturer's directions. Poly (I:C) (0.1 μg per ml) was applied to transfected cells and incubated for 48 hrs. At the end of transfection period, cells were harvested to isolate protein to perform qRT-PCR, western blot, and RA mass spectrometry.
# IL6 treatment. Recombinant human interleukin 6 (rhIL6) (R&D system; 206-IL-010) was treated into human scalp keratinocytes with dose-dependent manners (0, 10, 50, and 100 ng per ml) for 2 days. Cells were harvested and lysates were used for RA measurement.
# Determination of Retinoid Levels. For in vitro samples, human scalp keratinocytes were incubated with 0.5 μg per ml of Poly (I:C) for 48 hrs or siRNAs-transfected cells were incubated with 0.1 μg per ml of Poly (I:C) for 48 hrs. For in vivo samples, skin was analyzed from wild-type and Tlr3^−/− unwounded and wounded skin where wound regions (center and edge area) were cut by scalpel. Human skin was analyzed for retinoids with and without CO2 laser treatment as described. All samples were frozen at collection and stored at −80° C. until extraction. For in vitro experiments, media and cell pellets were analyzed separately. For in vivo experiments, tissues were homogenized in saline. Extraction of retinoids was performed under yellow lights using a two-step liquid-liquid extraction that has been described in detail previously using 4,4-dimethyl-RA as an internal standard for RA and retinyl acetate as an internal standard for retinol and total retinyl ester^43-46. For the extraction of retinoids, 1 to 3 ml of 0.025 M KOH in ethanol was added to tissue homogenates (in vivo) or cell culture (in vitro) samples. Then 10 ml hexane (for in vivo tissue sample) or 5 ml hexane (for in vitro cell culture sample) was added to the aqueous ethanol phase. The samples were vortexed and centrifuged for 1 to 3 min at 1000 rpm in a Dynac centrifuge (Becton Dickinson) to facilitate phase separation and pellet precipitated protein. The hexane (top) phase containing nonpolar retinoids (ROL and RE) was removed. 4 M HCl (60-180 μl) was added to the remaining aqueous ethanol phase, samples were vortexed, and then polar retinoids (RA) were removed by extraction with a second 5-10 ml aliquot of hexane as described above. […]
# Levels of RA were determined by liquid chromatography-multistage tandem mass spectrometry (LC-MRM^3) which is an LC-MS/MS method utilizing two distinct fragmentation events for enhanced selectivity^43. RA was measured using a Shimadzu Prominence UFLC XR liquid chromatography system (Shimadzu, Columbia, MD) coupled to an AB Sciex 5500 or 6500+ QTRAP hybrid triple quadrupole mass spectrometer (AB Sciex, Framingham, MA) using atmospheric pressure chemical ionization (APCI) operated in positive ion mode as previously described^43. […]
# [2] = tested on: human scalp keratinocytes; assay: Western blot / immunostaining of ALDH1A3, KRT15, KRT19 in human keratinocytes; type: cell-based; conditions: human keratinocytes
# Experimental: (§1) BMS493 treatment. BMS493 pan-RARs antagonist (1 μM) was pre-treated into keratinocytes for an hour and cells were incubated with RA (0.1 μM and 0.5 μM for human and mouse keratinocytes, respectively) or Poly (I:C) (0.1 μg per ml for both human and mouse keratinocytes) for 48 hrs. At the end of the experiment, cells were harvested for RNA and protein extraction to do further analysis including qRT-PCR and western blot.
# Western blot analysis. Human and mouse keratinocytes were disrupted in M-PER lysis buffer (Thermo Fisher Scientific, #78501) containing protease inhibitors (Thermo Fisher Scientific, #87786) using ultrasonic homogenizer (20% power with 5 times every 2 seconds) to extract proteins. Then, protein concentrations were determined by BCA method (Thermo Fisher Scientific, #23225). Western blot procedures were followed by the protocol of NuPAGE system (Thermo Fisher Scientific). Briefly, 20 μg of protein samples were loaded for electrophoresis and transferred to polyvinylidene di-fluoride (PVDF) membrane (Bio-Rad, Hercules, CA). After blocking for at least an hour in 5% non-fat dry milk, the membrane was incubated with primary antibodies with appropriate dilutions (Table 2) at 4° C. overnight and followed by incubation with secondary antibodies for 1 hour at room temperature. Protein amounts were normalized to rabbit polyclonal anti-human β-actin antibody (1:1,000 dilution) (Cell Signaling Technology). Finally, proteins were visualized using SuperSignal West Pico PLUS chemiluminescent substrate kit (Thermo Fisher Scientific, #34577) and saved as image files using ChemiDoc XRS^+ (Bio-Rad). The signal intensity of protein was quantified using Image Lab software (Bio-Rad). Original images of representative blots were provided in the Source data file.
# Immunofluorescence. For tissues, frozen-sections of mouse skin samples were stained with primary antibodies with appropriate dilution at 4° C. overnight, followed by incubation with goat anti-rabbit IgG labeled with Alexa Flour® 488 (Life Technologies) and 594 (Life Technologies) for 1 hour at room temperature. For cells, keratinocytes (3×10^5 cells) plated on cover-slip were fixed with 4% Paraformaldehyde (PFA) for 10 min, permeabilized in PBS including 0.5% Triton X-100 for 15 min at room temperature. After washing with PBS 3 times, cells were stained with primary antibodies overnight at 4° C., followed by incubation with goat anti-rabbit or mouse IgG labeled with Alexa Flour® 488 for 1 hour at room temperature. Cell nuclei were visualized by mounting medium including DAPI (Vector Laboratories, Burlingame, CA, H-1200). Fluorescence images were observed by fluorescence microscopy (Leica microsystems), taken pictures with ×100 (low magnification) and ×200 (high magnification), and saved as image files.
# [3] = tested on: Wound Induced Hair Neogenesis (WIHN); assay: Wound Induced Hair Neogenesis (WIHN), regenerated hair follicles counted by CSLM; type: in vivo, mouse; conditions: WT mice, topical 0.1 μg per mouse on WD1, with or without Poly (I:C)
# Experimental: (§2) Wound Induced Hair Neogenesis (WIHN). All experiments were followed with the present inventors' WIHN protocol^1,9. Briefly, hair was shaved and a 1.2 cm^2 full-thickness skin on the backs of 21-day old (telogen) male and female mice was removed by sterile scissors. A single treatment of RA (30 μl) (0.1 μg per mouse) (Millipore Sigma, R2625) and BMS493 (30 μl) (0.1 μg per mouse) (Cayman Chemical, #17418) was applied topically onto open wound on WD1 of Tlr3^−/− and WT mice, respectively. Poly (I:C) (50 μl) (5 μg per mouse) (Invivogen, tlrl-pic) was injected under the healed scab on WD3 of WT mice as described before^9,34. On WD20-24, numbers of regenerated hair follicles were visualized and quantified in the re-epithelialized skin by non-invasive confocal scanning laser microscopy (CSLM) (Caliber I.D., VIVASCOPE 1500) as published^1,9. As a vehicle (Control), ethanol (EtOH), dimethylsulfoxide (DMSO), or PBS was treated for RA, BMS493, and Poly (I:C), respectively.
# [4] = tested on: keratinocytes of Tlr3−/− mice; assay: Western blot of stem cell markers in keratinocytes of Tlr3-/- mice; type: cell-based, mouse; conditions: keratinocytes of Tlr3−/− mice, BMS493 1 μM pre-treated
# Experimental: Adult keratinocytes isolation and cultures. For human keratinocytes, 3-mm skin biopsies were taken from areas of the occipital scalp through above IRB protocols using enzyme digestion method as described in the literature^30,31. For mouse keratinocytes, tails of adult mice were used and followed by the same protocol of human keratinocytes. Briefly, the skin fragments were incubated in 0.4% dispase II solution overnight at 4° C., allowing separation of epidermis from dermis. Then epidermis was incubated with 0.25% trypsin-EDTA (Lonza, Walkersville, MD) to isolate keratinocytes for 5 min at 37° C. Adult keratinocytes were maintained in KGM including defined growth factors (KGM-GOLD Bullet kit, #192060) (Lonza) and supplemented with 10 μM of ROCK inhibitor (Y-27632) (Cayman Chemical, #10005583) until use^32. For all in vitro experiments, primary keratinocytes were passaged at least once to eliminate contaminating other cells isolated from epidermis and used at passage 2-4 for human and passage 1-2 for mouse keratinocytes.
# as §1
# Western blot analysis. Human and mouse keratinocytes were disrupted in M-PER lysis buffer (Thermo Fisher Scientific, #78501) containing protease inhibitors (Thermo Fisher Scientific, #87786) using ultrasonic homogenizer (20% power with 5 times every 2 seconds) to extract proteins. Then, protein concentrations were determined by BCA method (Thermo Fisher Scientific, #23225). Western blot procedures were followed by the protocol of NuPAGE system (Thermo Fisher Scientific). […] The signal intensity of protein was quantified using Image Lab software (Bio-Rad). […]
# wound beds = assay: Immunostaining of healing wounds; type: in vivo, mouse; conditions: WT mice
# Experimental: as §2
# Immunofluorescence. […] Fluorescence images were observed by fluorescence microscopy (Leica microsystems), taken pictures with ×100 (low magnification) and ×200 (high magnification), and saved as image files.
compound,measurement,setting,value
IL-6: Recombinant human interleukin 6 (R&D system; 206-IL-010),RA accumulation,[1],sufficient to substantially stimulate RA accumulation
"CCN(CC)c1ccc(C=O)cc1 [DEAB, N,N-diethylaminobenzaldehyde]","Poly (I:C) induction of ALDH1A3, KRT15 and KRT19 protein",[2]; broad ALDH chemical inhibition,disrupted
CC1(C)CC=C(C#Cc2ccccc2)c2cc(/C=C/c3ccc(C(=O)O)cc3)ccc21 [BMS493],WIHN,[3],almost completely ablated
same,RA-induced Krt15 and Krt19 expression,[4],substantially inhibits expression
same,RA-induced active β-catenin (ABC) expression,[4],inhibits induction
same,RA and Poly (I:C)-induced KRT15 and KRT19 expression,[2]; BMS493 1 μM pre-treated,substantially inhibited
same,Wnt7b and Krt15 protein expression in wound beds prior to regeneration,wound beds,decreased
